Reference: patent US8134015B2, “Compound inhibiting in vivo phosphorous transport and medicine containing the same” (Kyowa Hakko Kirin Co., Ltd., priority 2003, dated 2012)
pIC50: −log10 of the molar value.

Molecular target: T1, rat NaPi-2b (Rattus norvegicus, UniProt Q9JJ09)
T1 construct: expressed in transfected cells; host or cells: Xenopus oocytes injected with cRNA
T1 sequence (Q9JJ09 1-695): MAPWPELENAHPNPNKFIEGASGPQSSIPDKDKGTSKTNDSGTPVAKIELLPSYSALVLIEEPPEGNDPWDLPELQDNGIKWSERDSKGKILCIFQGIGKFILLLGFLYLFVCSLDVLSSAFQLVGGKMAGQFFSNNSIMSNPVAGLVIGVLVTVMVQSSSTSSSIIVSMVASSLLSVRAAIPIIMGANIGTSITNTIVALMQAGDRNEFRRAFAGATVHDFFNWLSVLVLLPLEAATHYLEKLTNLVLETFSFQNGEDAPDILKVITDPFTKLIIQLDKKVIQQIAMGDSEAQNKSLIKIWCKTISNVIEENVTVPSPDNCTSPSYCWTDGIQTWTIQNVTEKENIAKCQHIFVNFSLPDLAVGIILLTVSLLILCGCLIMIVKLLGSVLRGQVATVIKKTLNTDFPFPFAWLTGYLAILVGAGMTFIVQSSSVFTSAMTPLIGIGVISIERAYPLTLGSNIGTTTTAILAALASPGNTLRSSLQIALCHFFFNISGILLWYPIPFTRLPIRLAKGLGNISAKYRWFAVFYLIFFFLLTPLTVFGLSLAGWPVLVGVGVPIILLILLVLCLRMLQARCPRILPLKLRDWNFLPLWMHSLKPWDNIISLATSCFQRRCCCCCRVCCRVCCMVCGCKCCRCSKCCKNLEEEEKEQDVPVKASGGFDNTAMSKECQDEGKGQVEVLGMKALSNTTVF
Assay: Sodium-dependent phosphate uptake of Xenopus oocytes which expressed NaPi-2b (32P)
Format: cell-based
Conditions: for pIC50: Xenopus oocytes expressing rat NaPi-2b, 32P radioactive phosphorus, read-out: IC50 (phosphate uptake inhibitory activity); for inhibition at 300 µM: phosphate uptake, oocytes expressing rat NaPi-2b, determined from inhibition curve
Summary of the method: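 Percent inhibition at 300 μM and 100 μM comes from the same inhibition curve of 32P uptake. Assay used oocytes expressing rat NaPi-2b after 2 days of culture.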

Row | pIC50 | inhibition at 300 µM [%] | Compound
1 | 4.68 |  | COc1ccc(C(=O)Nc2ccccc2C(=O)N/N=C/c2cc(C)ccc2C)cc1OC [Compound 43, N-[2-(2,5-Dimethyl-benzylidene-hydrazinocarbonyl)-phenyl]-3,4-dimethoxy-benzamide]
2 | 5.86 |  | O=C(Nc1ccc(Br)cc1C(=O)N/N=C/c1ccc(Cl)c(C(F)(F)F)c1)c1ccc(CN2CCC(CO)CC2)cc1 [Compound 337, N-[4-Bromo-2-(4-chloro-3-trifluoromethyl-benzylidene-hydrazinocarbonyl)-phenyl]-4-(4-hydroxymethyl-piperidin-1-ylmethyl)-benzamide]
3 | 5.11 |  | CCN(CCO)Cc1ccc(C(=O)Nc2ccc(Cl)cc2C(=O)N/N=C/c2cccc(C)c2)cc1 [Compound 434, N-[4-Chloro-2-(3-methyl-benzylidene-hydrazinocarbonyl)-phenyl]-4-{[ethyl-(2-hydroxy-ethyl)-amino]-methyl}-benzamide]
4 | 5.47 |  | COc1ccc(C(=O)Nc2ccccc2C(=O)N/N=C/c2cccc(C)c2)cc1 [Compound 49, 4-Methoxy-N-[2-(3-methyl-benzylidene-hydrazinocarbonyl)-phenyl]-benzamide]
5 | 3.91 |  | CCN(CC)CCN(C)Cc1cccc(C(=O)Nc2c(C)csc2C(=O)N/N=C/c2ccc(C)cc2)c1 [Compound 343, 3-{[(2-Diethylamino-ethyl)-methyl-amino]-methyl}-N-[4-methyl-2-(4-methyl-benzylidene-hydrazinocarbonyl)-thiophen-3-yl]-benzamide]
6 | 5.11 |  | COc1ccc(C(=O)Nc2ccc(Br)cc2C(=O)N/N=C/c2cccnc2)cc1OC [Compound 110, N-[4-Bromo-2-(pyridin-3-ylmethylene-hydrazinocarbonyl)-phenyl]-3,4-dimethoxy-benzamide]
7 | 5.25 |  | Cc1ccc(/C=N/n2c(-c3cccc(CSc4nc[nH]n4)c3)nc3sc4c(c3c2=O)CCCC4)cc1 [Compound 647, 3-[(4-Methyl-benzylidene-)-amino]-2-[3-(1H-[1,2,4]triazol-3-ylsulfanylmethyl)-phenyl]-5,6,7,8-tetrahydro-3H-benzo[4,5]thieno[2,3-d]pyrimidin-4-one]
8 | 5.23 |  | Cc1ccc(/C=N/NC(=O)c2ccccc2NC(=O)c2ccc(F)cc2)cc1C [Compound 96, N-[2-(3,4-Dimethyl-benzylidene-hydrazinocarbonyl)-phenyl]-4-fluoro-benzamide]
9 |  | 40.9 | Cc1csc(C(=O)N/N=C/c2cccc(F)c2)c1NC(=O)c1cccc(CSCCCO)c1 [Compound 527, N-[2-(3-Fluoro-benzylidene-hydrazinocarbonyl)-4-methyl-thiophen-3-yl]-3-(3-hydroxy-propylsulfanylmethyl)-benzamide]
10 | 5.48 |  | CCN(CC)CCN(C)Cc1cccc(C(=O)Nc2sc3c(c2C(=O)N/N=C/c2ccc(OC)cc2)CCCC3)c1 [Compound 614, 3-{[(2-Diethylamino-ethyl)-methyl-amino]-methyl}-N-[3-(4-methoxy-benzylidene-hydrazinocarbonyl)-4,5,6,7-tetrahydro-benzo-[b]thiophen-2-yl]-benzamide]
11 | 4.94 |  | COc1cc(OC)cc(C(=O)Nc2ccc(Br)cc2C(=O)N/N=C/c2ccc(OC)c(OC)c2)c1 [Compound 128, N-[4-Bromo-2-(3,4-dimethoxy-benzylidene-hydrazinocarbonyl)-phenyl]-3,5-dimethoxy-benzamide]
12 | > 5.52 |  | CCN(CC)CCN(C)Cc1cccc(C(=O)Nc2ccc(I)cc2C(=O)N/N=C/c2ccc(Cl)c(C(F)(F)F)c2)c1 [Compound 477, N-[2-(4-chloro-3-trifluoromethyl-benzylidene-hydrazinocarbonyl)-4-iodo-phenyl]-3-{[(2-diethylamino-ethyl)-methyl-amino]-methyl}-benzamide]
13 | 5.69 |  | CCN(CC)CCN(Cc1cccc(C(=O)Nc2sc3c(c2C(=O)N/N=C/c2ccc(F)cc2)CCCC3)c1)C(C)=O [Compound 654, 3-{[Acetyl-(2-diethylamino-ethyl)-amino]-methyl}-N-[3-(4-fluoro-benzylidene-hydrazinocarbonyl)-4,5,6,7-tetrahydro-benzo[b]-thiophen-2-yl]-benzamide]
14 | 6.33 |  | O=C(Nc1ccc(Br)cc1C(=O)N/N=C/c1ccc(Cl)c(C(F)(F)F)c1)c1cccc(CSc2nc[nH]n2)c1 [Compound 272, N-[4-Bromo-2-(4-chloro-3-trifluoromethyl-benzylidene-hydrazinocarbonyl)-phenyl]-3-(1H-[1,2,4]triazol-3-ylsulfanylmethyl)-benzamide]
15 | 5.96 |  | COc1ccc(C(=O)Nc2scc(C)c2C(=O)N/N=C/c2ccc(Cl)c(C(F)(F)F)c2)cc1OC [Compound 522, N-[3-(4-Chloro-3-trifluoromethyl-benzylidene-hydrazinocarbonyl)-4-methyl-thiophen-2-yl]-3,4-dimethoxy-benzamide]
16 | 5.93 |  | CCN(CC)CCN(CCN(CC)CC)Cc1cccc(C(=O)Nc2ccc(N3CCCCC3)cc2C(=O)N/N=C/c2ccc(C)c(C)c2)c1 [Compound 905, 3-{[Bis-(2-diethylamino-ethyl)-amino]-methyl}-N-[2-(3,4-dimethyl-benzylidene-hydrazinocarbonyl)-4-piperidin-1-yl-phenyl]-benzamide]
17 | 5.03 |  | O=C(Nc1ccccc1C(=O)N/N=C/c1cccc(O)c1)c1ccccc1F [Compound 39, 2-Fluoro-N-[2-(3-hydroxy-benzylidene-hydrazinocarbonyl)-phenyl]-benzamide]
18 | 4.65 |  | O=C(Nc1ccccc1C(=O)N/N=C/c1ccccc1Br)c1ccccc1 [Compound 228, N-[2-(2-Bromo-benzylidene-hydrazinocarbonyl)-phenyl]-benzamide]
19 |  | 39.1 | COc1cccc(/C=N/NC(=O)c2cc(Br)ccc2NC(=O)c2ccc(CN3CCN(c4ccccn4)CC3)cc2)c1 [Compound 778, N-[4-Bromo-2-(3-methoxy-benzylidene-hydrazinocarbonyl)-phenyl]-4-(4-pyridin-2-yl-piperazin-1-ylmethyl)-benzamide]
20 | 5.04 |  | COc1ccc(C(=O)Nc2ccc(Cl)cc2C(=O)N/N=C/c2cccnc2)cc1OC [Compound 111, N-[4-Chloro-2-(pyridin-3-ylmethylene-hydrazinocarbonyl)-phenyl]-3,4-dimethoxy-benzamide]
21 | 4.98 |  | COc1ccc(C(=O)Nc2cc(Cl)ccc2C(=O)N/N=C/c2ccc(F)cc2)cc1OC [Compound 72, N-[5-Chloro-2-(4-fluoro-benzylidene-hydrazinocarbonyl)-phenyl]-3,4-dimethoxy-benzamide]
22 | > 5.52 |  | Cc1csc(NC(=O)c2cccc(CN3CCC(CO)CC3)c2)c1C(=O)N/N=C/c1ccc(Cl)c(C(F)(F)F)c1 [Compound 603, N-[3-(4-Chloro-3-trifluoromethyl-benzylidene-hydrazinocarbonyl)-4-methyl-thiophen-2-yl]-3-(4-hydroxymethyl-piperidin-1-ylmethyl)-benzamide]
23 | 4.58 |  | COc1ccc(C(=O)Nc2ccccc2C(=O)N/N=C/c2ccccc2Br)cc1OC [Compound 10, N-[2-(2-Bromo-benzylidene-hydrazinocarbonyl)-phenyl]-3,4-dimethoxy-benzamide]
24 | 6.46 |  | O=C(Nc1ccc(Br)cc1C(=O)N/N=C/c1cccc(F)c1)c1ccccn1 [Compound 495, Pyridin-2-carboxylic acid[4-bromo-2-(3-fluoro-benzylidene-hydrazinocarbonyl)-phenyl]-amide]
